Activity calls are given as the source filed them.
Tests used:
[1] = Shn3 3'UTR reporter inhibitors, dose response, cell-based, Clone20 osteoblasts, firefly luciferase, cherry-picked (AID 624132); assay type: functional;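 further: firefly luciferase luminescence from reporter carrying the Shn3 3'UTR in osteoblasts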
[2] = target: Melanocortin receptor 4 (Homo sapiens, UniProt P32245); assay type: functional, cell-based;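 further: Cell-based assay with luminescence read-out, confirmatory dose-response testing for agonist activity of biased ligands at MC4R; human U2OS cells with tagged receptor and beta-arrestin; potency of agonists that increase receptor coupling to beta-arrestin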
[3] = miR-122 activators in hepatoma reporter cells, dose response, cell-based, Huh7 psiCHECK-miR122, Renilla luciferase, cherry-picked (AID 651956); assay type: functional;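 further: huh7 hepatoma cells stably carrying a psiCHECK-2 miR-122 sensor plasmid; renilla luciferase signal reporting endogenous miR-122 activity after 48 h compound exposure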
[4] = HEK293T cytotoxicity, dose response, cytotoxicity control for miR-122 modulator project, cell-based, inhibitor set, cherry-pick, set 2 (AID 720697); assay type: functional
[5] = HEK293T cytotoxicity, dose response, cytotoxicity control for miR-122 modulator project, cell-based, activator set, cherry-pick (AID 720690); assay type: functional;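 further: HEK293T human cells scored for general mammalian cytotoxicity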
[6] = target: Nonstructural protein 1 (Influenza A virus, UniProt Q194T2); assay type: functional, Influenza A virus (A/California/07/2009(H1N1))
[7] = HeLa cell cytotoxicity, dose response, cytotoxicity control for MgcRacGAP inhibitor project (AID 624300); assay type: functional
[8] = target: T1, Rac GTPase-activating protein 1 (Homo sapiens, UniProt Q9H0H5); assay: MgcRacGAP GTPase-activating activity inhibitors, confirmation, biochemical, ADP Hunter fluorescence, primary and confirmatory (AID 624330); assay type: functional
T1 sequence (Q9H0H5 whole entry): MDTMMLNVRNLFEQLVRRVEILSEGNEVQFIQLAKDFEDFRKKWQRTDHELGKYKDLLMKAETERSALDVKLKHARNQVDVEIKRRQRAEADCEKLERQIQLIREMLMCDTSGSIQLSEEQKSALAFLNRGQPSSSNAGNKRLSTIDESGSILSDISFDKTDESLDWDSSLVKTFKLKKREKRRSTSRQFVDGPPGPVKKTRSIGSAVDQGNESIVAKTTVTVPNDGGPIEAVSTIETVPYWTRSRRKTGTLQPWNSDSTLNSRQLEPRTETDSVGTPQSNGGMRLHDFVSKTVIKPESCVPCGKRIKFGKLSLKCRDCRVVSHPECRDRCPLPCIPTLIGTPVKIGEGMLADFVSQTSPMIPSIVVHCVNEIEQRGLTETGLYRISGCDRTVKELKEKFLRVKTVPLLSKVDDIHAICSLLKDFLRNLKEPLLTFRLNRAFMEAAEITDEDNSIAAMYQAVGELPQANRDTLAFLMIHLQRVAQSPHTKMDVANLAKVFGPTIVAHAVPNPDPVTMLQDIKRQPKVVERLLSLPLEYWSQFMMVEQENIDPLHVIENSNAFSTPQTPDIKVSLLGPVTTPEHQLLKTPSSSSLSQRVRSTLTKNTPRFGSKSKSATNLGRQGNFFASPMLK

[9] = target: T2, Galanin receptor type 3 (Homo sapiens, UniProt O60755); assay: Fluorescence-based cell-based primary high throughput dose response assay to identify antagonists of the Galanin Receptor 3 (GalR3).; assay type: functional
T2 sequence (O60755 whole entry): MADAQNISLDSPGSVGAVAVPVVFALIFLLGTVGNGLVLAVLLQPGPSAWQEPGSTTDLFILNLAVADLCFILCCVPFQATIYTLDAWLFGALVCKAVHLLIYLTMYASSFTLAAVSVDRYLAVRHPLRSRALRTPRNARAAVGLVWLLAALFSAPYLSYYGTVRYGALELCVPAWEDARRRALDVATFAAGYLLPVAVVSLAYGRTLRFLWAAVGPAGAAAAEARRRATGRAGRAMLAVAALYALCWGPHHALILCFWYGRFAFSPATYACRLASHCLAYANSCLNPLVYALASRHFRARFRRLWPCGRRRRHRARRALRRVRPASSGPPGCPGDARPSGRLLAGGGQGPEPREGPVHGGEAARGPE

[10] = cells; assay type: functional, cell-based; conditions: HEK-CNG
[11] = target: T3, DNA repair protein RAD52 homolog (Homo sapiens, UniProt P43351); assay type: functional, biochemical
T3 sequence (P43351 whole entry): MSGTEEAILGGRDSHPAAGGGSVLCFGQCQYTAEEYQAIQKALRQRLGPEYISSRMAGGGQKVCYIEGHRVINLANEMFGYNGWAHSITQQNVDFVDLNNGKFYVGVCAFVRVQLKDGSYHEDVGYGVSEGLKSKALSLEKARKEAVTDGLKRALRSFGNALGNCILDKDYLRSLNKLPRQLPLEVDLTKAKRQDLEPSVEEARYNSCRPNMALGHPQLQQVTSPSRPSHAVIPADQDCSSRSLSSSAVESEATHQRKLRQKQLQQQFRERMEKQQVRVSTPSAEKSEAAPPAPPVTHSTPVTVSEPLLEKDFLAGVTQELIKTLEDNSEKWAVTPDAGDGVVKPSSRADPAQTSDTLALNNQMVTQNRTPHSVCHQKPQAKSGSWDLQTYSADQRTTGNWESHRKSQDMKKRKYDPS

[12] = target: Matrix metalloproteinase-14 (Homo sapiens, UniProt P50281); assay: Dose Response confirmation of uHTS hits for a small molecule inhibitors of MT1-MMP activation in a fluorescence assay set 1.; assay type: functional
[13] = target: T4, Histone-lysine N-methyltransferase NSD2 (Homo sapiens, UniProt O96028); assay type: biochemical
T4 sequence (O96028 whole entry): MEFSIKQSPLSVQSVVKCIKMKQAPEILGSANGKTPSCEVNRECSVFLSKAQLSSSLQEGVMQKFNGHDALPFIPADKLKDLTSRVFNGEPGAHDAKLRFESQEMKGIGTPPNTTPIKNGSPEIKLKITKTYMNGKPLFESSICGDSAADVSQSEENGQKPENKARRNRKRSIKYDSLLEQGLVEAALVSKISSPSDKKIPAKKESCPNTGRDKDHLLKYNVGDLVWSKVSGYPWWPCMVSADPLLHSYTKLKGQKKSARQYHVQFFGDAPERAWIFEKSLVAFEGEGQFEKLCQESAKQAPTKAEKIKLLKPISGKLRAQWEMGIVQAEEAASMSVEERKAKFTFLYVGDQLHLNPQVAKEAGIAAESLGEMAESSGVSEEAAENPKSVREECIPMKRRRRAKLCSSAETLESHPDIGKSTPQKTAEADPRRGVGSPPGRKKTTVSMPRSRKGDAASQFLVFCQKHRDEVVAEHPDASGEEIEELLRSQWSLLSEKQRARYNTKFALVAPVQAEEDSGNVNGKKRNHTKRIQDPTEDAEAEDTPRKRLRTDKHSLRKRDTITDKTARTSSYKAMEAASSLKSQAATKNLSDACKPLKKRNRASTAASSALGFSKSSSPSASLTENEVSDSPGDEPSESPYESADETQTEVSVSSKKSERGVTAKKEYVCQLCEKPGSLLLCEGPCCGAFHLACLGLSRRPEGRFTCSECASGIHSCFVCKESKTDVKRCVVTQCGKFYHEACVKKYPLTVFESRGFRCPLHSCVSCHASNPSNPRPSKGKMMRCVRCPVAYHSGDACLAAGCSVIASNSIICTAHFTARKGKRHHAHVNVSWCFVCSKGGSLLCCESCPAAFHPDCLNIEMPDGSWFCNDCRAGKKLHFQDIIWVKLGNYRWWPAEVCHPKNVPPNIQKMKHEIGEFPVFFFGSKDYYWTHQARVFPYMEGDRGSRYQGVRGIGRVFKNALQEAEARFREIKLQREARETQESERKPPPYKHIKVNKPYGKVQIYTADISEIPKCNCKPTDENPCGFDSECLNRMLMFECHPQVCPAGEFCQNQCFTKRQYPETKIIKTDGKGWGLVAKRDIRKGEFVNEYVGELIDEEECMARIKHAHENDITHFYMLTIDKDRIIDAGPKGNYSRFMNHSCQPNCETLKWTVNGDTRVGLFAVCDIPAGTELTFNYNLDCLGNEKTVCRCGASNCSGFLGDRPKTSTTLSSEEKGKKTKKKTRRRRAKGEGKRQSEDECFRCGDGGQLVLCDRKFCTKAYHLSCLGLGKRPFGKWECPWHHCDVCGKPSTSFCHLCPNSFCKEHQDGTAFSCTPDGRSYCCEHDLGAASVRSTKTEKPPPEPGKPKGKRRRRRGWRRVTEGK

[14] = human group III sPLA2 inhibitors, dose response, biochemical, QFRET, IC50 (AID 743457);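 further: green fluorescence rise as the enzyme cleaves BODIPY PC-A2 in liposomes; potency for inhibition of the enzyme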
[15] = Concentration-dependent survival of SW480 colon cancer line, luminescence detection with CellTiter-Glo, half-maximal inhibitory concentration (AID 1117338); assay type: functional
[16] = RKO cell viability reduction, dose response, CellTiter-Glo luminescence (AID 1117322); assay type: functional
[17] = cytotoxicity toward HCT116 cells – cell-based, CellTiter-Glo luminescence, IC50, dose response (AID 1117332); assay type: functional; conditions: HCT-116
[18] = SNU-C1 cell viability reduction, dose response, CellTiter-Glo luminescence (AID 1117323); assay type: functional, cell-based
[19] = cytotoxicity toward Colo320 cells – cell-based, CellTiter-Glo luminescence, IC50, dose response (AID 1117334); assay type: functional; conditions: COLO 320
[20] = cytotoxicity toward HT-29 cells – cell-based, CellTiter-Glo luminescence, IC50, dose response (AID 1117330); assay type: functional
[21] = CellTiter-Glo luminescent dose response of DLD-1 viability loss (AID 1117352); assay type: functional
[22] = HepG2 cell cytotoxicity, dose response, cytotoxicity control for Shn3 inhibitor project, CellTiter-Glo, cherry-picked (AID 624134); assay type: functional, cell-based
[23] = control 3'UTR Renilla luciferase suppression, dose response, counter-screen for Shn3 inhibitor project, cell-based, Clone20-Shn3RL, cherry-picked (AID 624133); assay type: functional
[24] = target: COUP transcription factor 2 (Homo sapiens, UniProt P24468); assay: Luminescence-based cell-based high throughput dose response assay to identify inhibitors of COUP-TFII (NR2F2).; assay type: functional;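 further: HEK293 cells transiently cotransfected with COUP-TFII expression vector and reporter; luciferase reporter luminescence driven by COUP-TFII from the pX2-168 reporter plasmid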
[25] = target: Kallikrein-7 (Homo sapiens, UniProt P49862); assay: Fluorescence Intensity-based biochemical primary high throughput dose response assay to identify activators of kallikrein-7 (K7) zymogen.
[26] = target: Luciferin 4-monooxygenase (Photinus pyralis, UniProt P08659); assay: firefly luciferase enzyme inhibitors, dose response, biochemical, luminescence (AID 1891)
[27] = Luminescence Cell-Based Dose Confirmation HTS to Identify Inhibitors of Platelet Dense Granule Release. [Related pubchem assays: 1663 (Primary HTS), 1678 (Summary of Project)]; assay type: functional
[28] = HepG2 cell cytotoxicity, dose response, cytotoxicity control, ATP luminescence, cherry-pick, activator set 2 (AID 1053143); assay type: functional, cell-based

COUP transcription factor 2, sequence (P24468 whole entry): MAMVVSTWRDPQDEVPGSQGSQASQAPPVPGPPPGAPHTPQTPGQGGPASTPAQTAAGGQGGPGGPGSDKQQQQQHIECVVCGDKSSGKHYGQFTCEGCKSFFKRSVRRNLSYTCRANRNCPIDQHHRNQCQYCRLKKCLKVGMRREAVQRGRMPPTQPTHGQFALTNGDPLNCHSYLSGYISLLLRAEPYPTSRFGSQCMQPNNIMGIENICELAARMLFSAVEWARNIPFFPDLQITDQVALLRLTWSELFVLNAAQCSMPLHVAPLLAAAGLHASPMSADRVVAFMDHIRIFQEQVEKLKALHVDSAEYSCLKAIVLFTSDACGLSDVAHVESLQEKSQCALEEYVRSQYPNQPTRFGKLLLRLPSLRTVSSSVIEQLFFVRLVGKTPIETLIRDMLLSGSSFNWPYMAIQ
Nonstructural protein 1, sequence (Q194T2 whole entry): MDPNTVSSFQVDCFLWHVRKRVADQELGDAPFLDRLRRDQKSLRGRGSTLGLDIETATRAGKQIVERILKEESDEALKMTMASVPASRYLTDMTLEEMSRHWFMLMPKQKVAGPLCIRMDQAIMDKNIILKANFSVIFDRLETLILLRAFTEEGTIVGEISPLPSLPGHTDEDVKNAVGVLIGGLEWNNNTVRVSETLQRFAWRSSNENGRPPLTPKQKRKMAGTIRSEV
Melanocortin receptor 4, sequence (P32245 whole entry): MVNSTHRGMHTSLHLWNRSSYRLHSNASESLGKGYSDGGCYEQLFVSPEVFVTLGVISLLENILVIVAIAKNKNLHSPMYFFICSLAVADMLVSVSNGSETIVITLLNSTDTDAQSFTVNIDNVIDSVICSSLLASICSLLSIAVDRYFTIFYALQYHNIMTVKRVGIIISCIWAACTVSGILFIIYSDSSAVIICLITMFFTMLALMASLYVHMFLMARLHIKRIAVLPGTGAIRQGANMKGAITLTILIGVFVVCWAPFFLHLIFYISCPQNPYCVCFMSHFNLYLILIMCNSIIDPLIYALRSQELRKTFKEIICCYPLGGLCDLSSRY
Kallikrein-7, sequence (P49862 whole entry): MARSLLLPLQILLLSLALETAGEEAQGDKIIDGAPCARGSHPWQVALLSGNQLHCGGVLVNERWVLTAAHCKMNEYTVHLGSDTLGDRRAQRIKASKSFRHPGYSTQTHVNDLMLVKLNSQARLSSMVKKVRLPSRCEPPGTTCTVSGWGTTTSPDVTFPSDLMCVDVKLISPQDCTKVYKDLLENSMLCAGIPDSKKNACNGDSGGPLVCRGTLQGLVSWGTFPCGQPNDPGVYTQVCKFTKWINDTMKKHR
Luciferin 4-monooxygenase, sequence (P08659 whole entry): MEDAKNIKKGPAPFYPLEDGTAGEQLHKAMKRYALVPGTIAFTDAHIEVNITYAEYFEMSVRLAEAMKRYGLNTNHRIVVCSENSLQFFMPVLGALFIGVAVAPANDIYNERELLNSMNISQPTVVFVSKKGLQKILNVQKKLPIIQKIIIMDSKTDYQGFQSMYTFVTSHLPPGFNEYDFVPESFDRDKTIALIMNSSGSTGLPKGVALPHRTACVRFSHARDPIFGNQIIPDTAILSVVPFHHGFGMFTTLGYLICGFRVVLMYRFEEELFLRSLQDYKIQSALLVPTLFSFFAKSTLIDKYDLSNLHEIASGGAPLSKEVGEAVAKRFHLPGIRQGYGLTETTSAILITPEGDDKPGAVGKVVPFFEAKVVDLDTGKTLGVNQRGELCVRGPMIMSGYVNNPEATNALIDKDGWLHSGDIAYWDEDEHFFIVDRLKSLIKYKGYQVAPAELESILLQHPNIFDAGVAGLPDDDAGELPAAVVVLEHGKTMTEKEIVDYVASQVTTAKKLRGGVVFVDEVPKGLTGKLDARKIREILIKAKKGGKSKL

SMILES: CCN1CCN(Cc2ccc(NC(=O)c3cc(NC(=O)c4cc5cccc(OC)c5o4)cc(OC)c3)cc2C(F)(F)F)CC1
- AC50 [1]: 9.77 µM (active)
- EC50 [2]: > 89.2 µM (inactive)
- AC50 [3]: 12.1 µM (active)
- AC50 [4]: 4.28 µM (active)
- AC50 [5]: 8.76 µM (active)

SMILES: CN(C)c1ccc(C=c2c3ccccc3n3c2c2c([n+]3C)CCCC2)cc1
- IC50 [6]: 11 µM (active)
- CC50 [7]: 16.9 µM (active)
- IC50 [8]: 38.3 µM (active)
- IC50 [9]: 1.31 µM (active)
- EC50 [10]: > 29.9 µM (inactive)
- AC50 [11]: 0.914 µM (active)
- IC50 [12]: > 80 µM (inactive)
- AC50 [13]: 7.63 µM (active)
- IC50 [14]: 71.1 µM (inactive)

SMILES: O=C(O)c1ccccc1OP(=O)(O)O [FOSFOSAL]
- IC50 [15]: > 20 µM (inactive)
- IC50 [16]: > 20 µM (inactive)
- IC50 [17]: > 20 µM (inactive)
- IC50 [18]: > 20 µM (inactive)
- IC50 [19]: > 20 µM (inactive)
- IC50 [20]: > 20 µM (inactive)
- IC50 [21]: > 20 µM (inactive)

SMILES: COc1ccc(CNC(=O)c2cccc3c(-c4cccnc4)coc23)cc1OC
- AC50 [1]: 0.9 µM (active)
- AC50 [22]: 1.66 µM (active)
- AC50 [23]: 2.29 µM (active)
- IC50 [9]: 0.126 µM (active)
- EC50 [10]: > 29.9 µM (inactive)
- IC50 [24]: 1.47 µM (active)

SMILES: Cc1ccc2nc(NC(=O)c3ccc4ncsc4c3)sc2c1
- EC50 [25]: 20.8 µM (inactive)

SMILES: Cc1cc(NC(=O)c2cccc(F)c2)ncc1NC(=O)c1ccco1
- EC50 [26]: 7.28 µM (active)
- EC50 [27]: 7.21 µM (active)
- AC50 [28]: 26 µM (active)

— ChEMBL document CHEMBL1201862, “PubChem BioAssay data set” (2004)
